Assay results: patent US10875874B2, “Ginkgolide B derivative and preparation method and use thereof” (Chengdu Baiyu Ginkgolide Pharmaceuticals Co., Ltd., priority 2015, dated 2020)
Marks after values point to notes of the source that are not given here.

Assays:
Type in all cases: in vivo, rat
[1] = system: spontaneously hypertensive rats (SHR); assay: Caudal artery systolic pressure of spontaneously hypertensive rats, 8 weeks of continuous medication; details: x ± s, n = 8
Method: (§1) 2.1 Grouping and administration of animals: 112 SHR rats (the female and male SHR rats are half and half, and the female rats are not pregnant) with the body weight of 200-250 g are taken, the rats are enabled to adapt to a laboratory for a period of 5 d, blood pressure is measured once at a day to enable the rats to adapt to the environment and detect stimulation. Then, weighing and numbering are carried out, and the SHR rats are equally divided into 14 groups randomly (each group comprises 8 rats), i.e., an SHR rat model control group, a positive control group (captopril, 27 mg/kg), a BZ large-dose group (120 mg/kg/d), a BZ small-dose group (60 mg/kg/d), a BA large-dose group (120 mg/kg/d), a BA small-dose group (60 mg/kg/d), a BL large-dose group (120 mg/kg/d), a BL small-dose group (60 mg/kg/d), a BM large-dose group (120 mg/kg/d), a BM small-dose group (60 mg/kg/d), a BD large-dose group (120 mg/kg/d), a BD small-dose group (60 mg/kg/d), a GB large-dose group (120 mg/kg/d) and a GB small-dose group (60 mg/kg/d). In addition, 8 healthy Wistar rats are taken as a normal control group. Intragastric administration is performed on the rats of each drug group separately according to the above-mentioned doses by 1 mL/100 g body weight, intragastric administration is performed on the rats of the normal control group and the rats of the SHR rat model control group with an equal volume of distilled water, and administration is performed continuously for 8 weeks.
(§2) 2.3 Blood pressure measuring: caudal artery systolic pressure of rats is measured with a Bp-6 noninvasive blood pressure measuring system. Under the condition that the rats are calm, the systolic pressure is continuously measured for 3 times, and the average value of the measured systolic pressure is taken as a pressure measuring result. Observation indexes: (1) single-administration pressure lowering effect: blood pressure of the rats is measured before administration and blood pressure conditions are measured 30 min, 60 min, 90 min and 120 min after first administration; and (2) continuous-administration pressure lowering condition: blood pressure is separately measured 30 min after administration at 1 d, 7 d, 13 d, 19 d, 25 d, 35 d, 49 d and 56 d, the blood pressure is repeatedly measured for 3 times at a day, and the average value of obtained values is taken as a final blood pressure value.

[2] = Weekly food intake of SHR rats
Method: as §1
(§3) 2.2 General state: during observation, conditions such as mind, water drinking, food intake, bowel movement, hair color, body weight and range of motion of rats are observed. Irritable degrees of the rats are divided into III levels: a level I means that the rats are free of obvious response when necks of the rats are seized; a level II means that the rats scream and startle when the necks of the rats are seized; and a level III means that the rats bite or rats of same cages frequently fight when the necks of the rats are seized.
(§4) 3.1 Influence on general state of spontaneously hypertensive rats: the rats of the normal control group are normal in food intake, drinking and motion conditions, sensitive in response, healthy and glossy in hair color, good in mental state and free of any unusual response; the rats of the SHR model group gradually present that back hair is fluffy, clustered and dim, the appetite is reduced, the body weight is reduced, the mind is dispirited and irritable, and the rats are prone to the behaviors of intense resisting, attacking and so on during administration and blood pressure detection, and irritable degrees are mostly changed to a level II and a level III from a level I; and after single administration of ginkgolide B and derivatives thereof, behavioral general state observations of rats of each group are free of obvious difference from those of the model control group.

[3] = system: spontaneously hypertensive rats (SHR); assay: Caudal artery systolic pressure of spontaneously hypertensive rats, single administration; details: x ± s, n = 8
Method: as §1, §2

[4] = Weekly body weight of SHR rats
Method: as §1, §3, §4

[5] = 60 mg/kg/d intragastric, week 0
[6] = 60 mg/kg/d intragastric, week 1
[7] = 60 mg/kg/d intragastric, week 2
[8] = 60 mg/kg/d intragastric, week 3
[9] = 60 mg/kg/d intragastric, week 4
[10] = 60 mg/kg/d intragastric, week 5
[11] = 60 mg/kg/d intragastric, week 6
[12] = 60 mg/kg/d intragastric, week 7
[13] = 60 mg/kg/d intragastric, week 8
[14] = 120 mg/kg/d intragastric, week 0
[15] = 120 mg/kg/d intragastric, week 1
[16] = 120 mg/kg/d intragastric, week 2
[17] = 120 mg/kg/d intragastric, week 3
[18] = 120 mg/kg/d intragastric, week 4
[19] = 120 mg/kg/d intragastric, week 5
[20] = 120 mg/kg/d intragastric, week 6
[21] = 120 mg/kg/d intragastric, week 7
[22] = 120 mg/kg/d intragastric, week 8

CC1C(=O)OC2C(O)C34C5CC(C(C)(C)C)C36C(OC(=O)C6O)OC4(C(=O)O5)C12O (stereo not shown) [GB, ginkgolide B]
Systolic pressure ([1]; 60 mg/kg/d intragastric continuous, 1 d, 30 min after administration): 155.67 ± 12.36 mmHg
Systolic pressure ([1]; 60 mg/kg/d intragastric continuous, 7 d, 30 min after administration): 153.46 ± 10.74 mmHg
Systolic pressure ([1]; 60 mg/kg/d intragastric continuous, 13 d, 30 min after administration): 156.25 ± 10.84 mmHg
Systolic pressure ([1]; 60 mg/kg/d intragastric continuous, 19 d, 30 min after administration): 150.68 ± 9.78 mmHg
Systolic pressure ([1]; 60 mg/kg/d intragastric continuous, 25 d, 30 min after administration): 155.65 ± 10.57 mmHg
Systolic pressure ([1]; 60 mg/kg/d intragastric continuous, 35 d, 30 min after administration): 154.25 ± 10.74 mmHg
Systolic pressure ([1]; 60 mg/kg/d intragastric continuous, 49 d, 30 min after administration): 150.56 ± 10.42 mmHg
Systolic pressure ([1]; 60 mg/kg/d intragastric continuous, 56 d, 30 min after administration): 153.85 ± 9.24 mmHg
Systolic pressure ([1]; 60 mg/kg/d intragastric continuous, before administration): 168.41 ± 12.30 mmHg
Systolic pressure ([1]; 120 mg/kg/d intragastric continuous, 1 d, 30 min after administration): 150.63 ± 10.25 mmHg
Systolic pressure ([1]; 120 mg/kg/d intragastric continuous, 7 d, 30 min after administration): 148.54 ± 9.27 mmHg
Systolic pressure ([1]; 120 mg/kg/d intragastric continuous, 13 d, 30 min after administration): 141.74 ± 8.26 mmHg
Systolic pressure ([1]; 120 mg/kg/d intragastric continuous, 19 d, 30 min after administration): 140.95 ± 12.04 mmHg
Systolic pressure ([1]; 120 mg/kg/d intragastric continuous, 25 d, 30 min after administration): 147.46 ± 9.85 mmHg
Systolic pressure ([1]; 120 mg/kg/d intragastric continuous, 35 d, 30 min after administration): 142.33 ± 10.38 mmHg
Systolic pressure ([1]; 120 mg/kg/d intragastric continuous, 49 d, 30 min after administration): 138.79 ± 11.58 mmHg
Systolic pressure ([1]; 120 mg/kg/d intragastric continuous, 56 d, 30 min after administration): 135.28 ± 7.48 mmHg
Systolic pressure ([1]; 120 mg/kg/d intragastric continuous, before administration): 167.49 ± 13.09 mmHg
Average dairy food intake [2, 5]: 18.6 g/day
Average dairy food intake [2, 6]: 20.1^▴ g/d
Average dairy food intake [2, 7]: 18.9^▴ g/d
Average dairy food intake [2, 8]: 17.7 g/day
Average dairy food intake [2, 9]: 18.6^▴ g/d
Average dairy food intake [2, 10]: 21.7^▴▴ g/d
Average dairy food intake [2, 11]: 23.5^▴▴ g/d
Average dairy food intake [2, 12]: 24.2^▴▴ g/d
Average dairy food intake [2, 13]: 25.4^▴▴ g/d
Average dairy food intake [2, 14]: 18.3 g/day
Average dairy food intake [2, 15]: 20.6^▴▴ g/d
Average dairy food intake [2, 16]: 19.5^▴ g/d
Average dairy food intake [2, 17]: 20.6^▴▴ g/d
Average dairy food intake [2, 18]: 21.4^▴▴ g/d
Average dairy food intake [2, 19]: 22.8^▴▴ g/d
Average dairy food intake [2, 20]: 24.6^▴▴ g/d
Average dairy food intake [2, 21]: 26.8^▴▴ g/d
Average dairy food intake [2, 22]: 28.2^▴▴ g/d
Systolic pressure ([3]; 60 mg/kg intragastric single administration, 30 min): 160.42 ± 9.56 mmHg
Systolic pressure ([3]; 60 mg/kg intragastric single administration, 60 min): 153.15 ± 12.51 mmHg
Systolic pressure ([3]; 60 mg/kg intragastric single administration, 90 min): 155.16 ± 11.26 mmHg
Systolic pressure ([3]; 60 mg/kg intragastric single administration, 120 min): 159.17 ± 11.63 mmHg
Systolic pressure ([3]; 60 mg/kg intragastric single administration, before administration): 168.41 ± 12.30 mmHg
Systolic pressure ([3]; 120 mg/kg intragastric single administration, 30 min): 151.46 ± 16.27 mmHg
Systolic pressure ([3]; 120 mg/kg intragastric single administration, 60 min): 157.54 ± 17.95 mmHg
Systolic pressure ([3]; 120 mg/kg intragastric single administration, 90 min): 160.26 ± 16.54 mmHg
Systolic pressure ([3]; 120 mg/kg intragastric single administration, 120 min): 152.21 ± 18.27 mmHg
Systolic pressure ([3]; 120 mg/kg intragastric single administration, before administration): 167.49 ± 13.09 mmHg
Body weight [4, 5]: 230.8 g
Body weight [4, 6]: 235.6 g
Body weight [4, 7]: 243.1^▴ g
Body weight [4, 8]: 250.2 g
Body weight [4, 9]: 258.9^▴ g
Body weight [4, 10]: 262.4 g
Body weight [4, 11]: 268.7^▴ g
Body weight [4, 12]: 280.6^▴▴ g
Body weight [4, 13]: 290.1^▴▴ g
Body weight [4, 14]: 231.0 g
Body weight [4, 15]: 250.3^▴▴ g
Body weight [4, 16]: 258.7^▴▴ g
Body weight [4, 17]: 263.4^▴▴ g
Body weight [4, 18]: 270.6^▴▴ g
Body weight [4, 19]: 281.5^▴▴ g
Body weight [4, 20]: 290.6^▴▴ g
Body weight [4, 21]: 306.7^▴▴ g
Body weight [4, 22]: 321.2^▴▴ g
